The source of these data is patent publication EP1332762A1, “Method of treating hyperprolactinemia and prolactinomas” (Cedars-Sinai Medical Center, priority 1997, dated 1998).

Molecules are shown by their SMILES. Positions of bridges follow the written chain, without caps; N, C: chain ends. Non-standard residues stand in square brackets, D forms with d. Residues, ends and D or L forms follow the SMILES beside them.

Experiment [1] has as its system Cells derived from six prolactin-secreting pituitary adenomas. Nature of the experiment: Reduction of prolactin secretion from cultured prolactinoma cells (PRL by immunoradiometric assay). The class given is cell-based, human. The conditions noted are these: for effect on prolactin release: adenomatous cell cultures of tumor 1; for effect on prolactin release / suppressed prolactin release: 10-100 nM; for effect on prolactin release / suppressed prolactin secretion / suppressed prolactin release: 3 hours; for effect on prolactin release / response of prolactin secretion / effect on prolactin production: result in words; for suppressed prolactin secretion: cell cultures from tumor 1; for response of prolactin secretion: cells of the four large male tumors (tumors 1-4); for suppressed prolactin release / effect on prolactin production: large tumor 4 cell cultures.

Experiment [2] addresses hSSTR-4 (Homo sapiens, UniProt P31391). Kind of experiment: Somatostatin receptor binding assay ([125I-Tyr11]somatostatin-14, membranes of transfected CHO-K1 cells). The conditions noted are these: radioligand 0.05 nM, 30 min at 30 °C.
In experiment [3] the target is hSSTR-5 (Homo sapiens, UniProt P35346). Described as above. The conditions noted are these: radioligand 0.05 nM, 30 min at 30 °C.
Experiment [4] concerns the target hSSTR-1 (Homo sapiens, UniProt P30872). The description is as above. The conditions noted are these: radioligand 0.05 nM, 30 min at 30 °C.
Experiment [5] addresses hSSTR-2 (Homo sapiens, UniProt P30874). The experiment is described as above. The settings on record: radioligand 0.05 nM, 30 min at 30 °C.
Experiment [6] has as its target hSSTR-3 (Homo sapiens, UniProt P32745). The experiment is described as above. The conditions noted are these: radioligand 0.05 nM, 30 min at 30 °C.

hSSTR-2, sequence (P30874 whole entry): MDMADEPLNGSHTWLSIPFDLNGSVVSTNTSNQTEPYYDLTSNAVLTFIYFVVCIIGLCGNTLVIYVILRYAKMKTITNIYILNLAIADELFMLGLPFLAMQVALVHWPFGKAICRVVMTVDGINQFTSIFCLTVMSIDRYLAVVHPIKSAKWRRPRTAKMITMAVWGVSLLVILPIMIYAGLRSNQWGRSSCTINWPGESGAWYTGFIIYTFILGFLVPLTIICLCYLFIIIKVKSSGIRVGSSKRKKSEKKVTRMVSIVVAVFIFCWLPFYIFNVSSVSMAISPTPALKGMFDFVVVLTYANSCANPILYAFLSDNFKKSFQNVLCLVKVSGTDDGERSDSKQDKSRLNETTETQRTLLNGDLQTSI
hSSTR-1, sequence (P30872 whole entry): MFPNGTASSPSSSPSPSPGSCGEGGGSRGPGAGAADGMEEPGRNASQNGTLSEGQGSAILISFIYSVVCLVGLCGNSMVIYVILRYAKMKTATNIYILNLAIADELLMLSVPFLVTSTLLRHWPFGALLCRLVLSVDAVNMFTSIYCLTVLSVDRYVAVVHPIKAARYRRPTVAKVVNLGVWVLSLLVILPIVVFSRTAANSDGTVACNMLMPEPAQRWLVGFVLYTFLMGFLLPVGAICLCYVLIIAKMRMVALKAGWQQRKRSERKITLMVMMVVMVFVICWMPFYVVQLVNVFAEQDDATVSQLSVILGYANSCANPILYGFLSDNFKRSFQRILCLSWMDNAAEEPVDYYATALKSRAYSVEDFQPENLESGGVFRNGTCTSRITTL
hSSTR-3, sequence (P32745 whole entry): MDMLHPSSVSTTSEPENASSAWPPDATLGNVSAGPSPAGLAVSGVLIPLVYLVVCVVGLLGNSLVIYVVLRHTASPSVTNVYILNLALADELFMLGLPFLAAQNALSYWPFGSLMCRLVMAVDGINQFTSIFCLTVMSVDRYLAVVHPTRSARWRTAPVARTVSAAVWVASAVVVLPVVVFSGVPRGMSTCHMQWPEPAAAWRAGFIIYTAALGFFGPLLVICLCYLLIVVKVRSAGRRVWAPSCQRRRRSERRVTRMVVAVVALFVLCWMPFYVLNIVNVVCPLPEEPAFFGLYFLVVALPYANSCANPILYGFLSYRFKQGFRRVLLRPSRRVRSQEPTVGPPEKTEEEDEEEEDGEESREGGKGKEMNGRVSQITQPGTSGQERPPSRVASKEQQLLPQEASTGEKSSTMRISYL
hSSTR-4, sequence (P31391 whole entry): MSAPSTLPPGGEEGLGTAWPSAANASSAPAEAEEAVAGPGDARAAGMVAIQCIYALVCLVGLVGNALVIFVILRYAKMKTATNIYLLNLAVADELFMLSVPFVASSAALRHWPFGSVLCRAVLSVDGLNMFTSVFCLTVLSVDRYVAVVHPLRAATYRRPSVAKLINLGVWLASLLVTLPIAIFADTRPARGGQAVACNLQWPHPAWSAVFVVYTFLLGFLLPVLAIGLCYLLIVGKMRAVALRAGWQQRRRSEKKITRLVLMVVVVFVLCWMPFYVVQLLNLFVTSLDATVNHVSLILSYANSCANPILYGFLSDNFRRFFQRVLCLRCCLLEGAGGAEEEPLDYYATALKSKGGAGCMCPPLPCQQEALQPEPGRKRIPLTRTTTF
hSSTR-5, sequence (P35346 whole entry): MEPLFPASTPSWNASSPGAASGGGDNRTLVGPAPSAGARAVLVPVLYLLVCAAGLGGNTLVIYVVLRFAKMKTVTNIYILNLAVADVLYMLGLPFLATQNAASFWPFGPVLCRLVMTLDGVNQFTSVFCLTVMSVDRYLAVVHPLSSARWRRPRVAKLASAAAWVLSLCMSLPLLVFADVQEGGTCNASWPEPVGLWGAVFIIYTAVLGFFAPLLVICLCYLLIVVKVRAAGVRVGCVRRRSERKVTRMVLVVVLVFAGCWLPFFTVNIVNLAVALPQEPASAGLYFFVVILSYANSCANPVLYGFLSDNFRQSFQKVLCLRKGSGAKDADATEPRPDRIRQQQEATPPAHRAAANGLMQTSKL

Consider `CC[C@@H]1NC(=O)[C@H](CCCCN)NC(=O)[C@@H](Cc2c[nH]c3ccccc23)NC(=O)[C@H](Cc2ccc(O)cc2)NC(=O)[C@@H](NC(=O)[C@H](N)Cc2ccccc2)CSSC[C@@H](C(=O)N[C@H](C(N)=O)[C@@H](C)O)NC1=O` [BIM-23023], for which the “effect on prolactin release” value in experiment [1] was “did not affect prolactin release”.
Consider `C[C@@H](O)[C@H](NC(=O)[C@H](Cc1ccccc1)NC(=O)[C@@H](NC(=O)[C@H](CCCCN)NC(=O)[C@@H](Cc1c[nH]c2ccccc12)NC(=O)[C@H](Cc1ccccc1)NC(=O)[C@H](Cc1ccccc1)NC(=O)[C@H](N)Cc1ccccc1)[C@@H](C)O)C(N)=O` [BIM-23052, H-D-Phe-Phe-Phe-D-Trp-Lys-Thr-Phe-Thr-NH2] (H-[dF]FF[dW]KTFT-NH2), for which the inhibitory constant (Ki) (as a rule, the equilibrium dissociation constant of an inhibitor or competing ligand from its target) in experiment [2] was determined as 127 nM; in experiment [3] it was 1.22 nM; in experiment [4] it was 97.6 nM; in experiment [5], 12 nM; in experiment [6], 5.6 nM. In experiment [1] (10 nM, p<0.05), this compound had a suppressed prolactin secretion of 33%. Further, in experiment [1], the “response of prolactin secretion” value is given as “suppression of prolactin secretion”. Moreover, in experiment [1] (p<0.05), the suppressed prolactin release result is listed as “more than 30%”.
For `CC[C@@H]1NC(=O)[C@H](CCCCN)NC(=O)[C@@H](Cc2c[nH]c3ccccc23)NC(=O)[C@H](Cc2ccc(O)cc2)NC(=O)[C@@H](NC(=O)[C@@H](Cc2ccccc2)NC(=O)CN2CCN(CCO)CC2)CSSC[C@@H](C(=O)N[C@H](C(N)=O)[C@@H](C)O)NC1=O` [BIM-23190], in experiment [1], the “effect on prolactin release” value is “did not affect prolactin release”, the “response of prolactin secretion” value is given as “failed to respond” and the “effect on prolactin production” value is listed as “modestly stimulated prolactin production”.
Take `CC[C@@H]1NC(=O)[C@H](CCCCN)NC(=O)[C@@H](Cc2c[nH]c3ccccc23)NC(=O)[C@H](Cc2ccc(O)cc2)NC(=O)[C@@H](NC(=O)[C@@H](Cc2ccccc2)NS(=O)(=O)CCN2CCN(CCO)CC2)CSSC[C@@H](C(=O)N[C@H](C(N)=O)[C@@H](C)O)NC1=O` [BIM-23197]: in experiment [1], the “effect on prolactin release” value is “did not affect prolactin release”, the “response of prolactin secretion” value was “failed to respond” and the “effect on prolactin production” value is “modestly stimulated prolactin production”.
`C[C@@H](O)[C@@H]1NC(=O)[C@H](CCCCN)NC(=O)[C@@H](Cc2c[nH]c3ccccc23)NC(=O)[C@H](Cc2ccccc2)NC(=O)[C@H](Cc2ccccc2)NC(=O)[C@@H](N)CSSC[C@@H](C(N)=O)NC(=O)[C@H](Cc2ccccc2)NC1=O` [BIM-23268] (H-CFF[dW]KTFC-NH2; disulfide 1-8): in experiment [1] (10 nM, p<0.05), the suppressed prolactin secretion was determined as 36%. Besides, the “response of prolactin secretion” value in experiment [1] is reported as “suppression of prolactin secretion”. Besides, the suppressed prolactin result in experiment [1] (large tumor 3 cell cultures, 10 nM and 100 nM, dose dependent, p<0.05) is “up to 29%”. In addition, in experiment [1] (p<0.05), the suppressed prolactin release entry is recorded as “more than 30%”. In experiment [1] (tumor 2 cell cultures, 10 nM, versus controls, p<0.0005), this compound came in with a Prolactin release inhibited of 38%.
In experiment [5], `CC(C)[C@@H]1NC(=O)[C@H](CCCCN)NC(=O)[C@@H](Cc2c[nH]c3ccccc23)NC(=O)[C@H](Cc2ccc(O)cc2)NC(=O)[C@@H](NC(=O)[C@H](N)Cc2ccc3ccccc3c2)CSSC[C@@H](C(=O)N[C@H](C(N)=O)[C@@H](C)O)NC1=O` [Lanreotide] had a Ki of 0.75 nM. In addition, in experiment [1], the “effect on prolactin release” value is recorded as “did not affect prolactin release” and the “response of prolactin secretion” value was “failed to respond”.
With `C[C@@H](O)[C@@H]1NC(=O)[C@H](CCCCN)NC(=O)[C@@H](Cc2c[nH]c3ccccc23)NC(=O)[C@H](Cc2ccccc2)NC(=O)[C@@H](NC(=O)[C@H](N)Cc2ccccc2)CSSC[C@@H](C(=O)N[C@H](CO)[C@@H](C)O)NC1=O` [Octreotide], the “response of prolactin secretion” value in experiment [1] is recorded as “failed to respond”.
